# Data as given in ChEMBL document CHEMBL5465560, “Selectivity Literature for EUbOPEN Chemogenomic Library” (2024).
# Experiments:
# [1] = target: Calcium/calmodulin-dependent protein kinase type 1G (Homo sapiens) (UniProt Q96NX5); experiment: Selectivity interaction (KinomeScan (DiscoverX)) EUB0000666a CAMK1G; conditions: at 10 µM
# [2] = target: T1, Histone-arginine methyltransferase CARM1 (Homo sapiens) (UniProt Q86X55); conditions: KMS-20, at 3 µM
# T1 sequence (whole entry): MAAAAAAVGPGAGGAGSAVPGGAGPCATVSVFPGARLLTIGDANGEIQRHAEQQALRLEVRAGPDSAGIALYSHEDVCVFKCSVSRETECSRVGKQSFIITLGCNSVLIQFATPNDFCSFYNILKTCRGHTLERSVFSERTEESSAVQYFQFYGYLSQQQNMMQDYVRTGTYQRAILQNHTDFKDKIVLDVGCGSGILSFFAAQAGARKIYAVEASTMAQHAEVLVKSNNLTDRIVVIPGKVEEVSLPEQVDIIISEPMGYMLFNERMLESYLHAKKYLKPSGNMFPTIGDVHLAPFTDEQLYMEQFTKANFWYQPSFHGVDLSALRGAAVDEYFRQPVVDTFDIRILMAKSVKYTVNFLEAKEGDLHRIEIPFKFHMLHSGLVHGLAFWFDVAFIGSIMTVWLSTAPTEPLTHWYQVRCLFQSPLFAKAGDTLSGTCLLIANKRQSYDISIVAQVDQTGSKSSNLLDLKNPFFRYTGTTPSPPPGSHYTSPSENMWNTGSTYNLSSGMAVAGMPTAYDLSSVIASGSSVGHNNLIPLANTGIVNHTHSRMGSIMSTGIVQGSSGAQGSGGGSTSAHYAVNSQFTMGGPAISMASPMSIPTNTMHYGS
# [3] = target: Dual specificity tyrosine-phosphorylation-regulated kinase 1A (Homo sapiens, UniProt Q13627); experiment: Selectivity interaction (KinomeScan (DiscoverX)) EUB0001079a DYRK1A; conditions: at 1 µM
# [4] = target: Serine/threonine-protein kinase 24 (Homo sapiens) (UniProt Q9Y6E0); experiment: Selectivity interaction (Kinase panel (DSF assay)) EUB0001558a STK24
# [5] = target: T2, Phosphatidylinositol 4,5-bisphosphate 3-kinase catalytic subunit delta isoform (Homo sapiens) (UniProt O00329); experiment: Selectivity interaction (KinomeScan (DiscoverX)) EUB0000877a PIK3CD; conditions: at 10 µM
# T2 sequence (whole entry): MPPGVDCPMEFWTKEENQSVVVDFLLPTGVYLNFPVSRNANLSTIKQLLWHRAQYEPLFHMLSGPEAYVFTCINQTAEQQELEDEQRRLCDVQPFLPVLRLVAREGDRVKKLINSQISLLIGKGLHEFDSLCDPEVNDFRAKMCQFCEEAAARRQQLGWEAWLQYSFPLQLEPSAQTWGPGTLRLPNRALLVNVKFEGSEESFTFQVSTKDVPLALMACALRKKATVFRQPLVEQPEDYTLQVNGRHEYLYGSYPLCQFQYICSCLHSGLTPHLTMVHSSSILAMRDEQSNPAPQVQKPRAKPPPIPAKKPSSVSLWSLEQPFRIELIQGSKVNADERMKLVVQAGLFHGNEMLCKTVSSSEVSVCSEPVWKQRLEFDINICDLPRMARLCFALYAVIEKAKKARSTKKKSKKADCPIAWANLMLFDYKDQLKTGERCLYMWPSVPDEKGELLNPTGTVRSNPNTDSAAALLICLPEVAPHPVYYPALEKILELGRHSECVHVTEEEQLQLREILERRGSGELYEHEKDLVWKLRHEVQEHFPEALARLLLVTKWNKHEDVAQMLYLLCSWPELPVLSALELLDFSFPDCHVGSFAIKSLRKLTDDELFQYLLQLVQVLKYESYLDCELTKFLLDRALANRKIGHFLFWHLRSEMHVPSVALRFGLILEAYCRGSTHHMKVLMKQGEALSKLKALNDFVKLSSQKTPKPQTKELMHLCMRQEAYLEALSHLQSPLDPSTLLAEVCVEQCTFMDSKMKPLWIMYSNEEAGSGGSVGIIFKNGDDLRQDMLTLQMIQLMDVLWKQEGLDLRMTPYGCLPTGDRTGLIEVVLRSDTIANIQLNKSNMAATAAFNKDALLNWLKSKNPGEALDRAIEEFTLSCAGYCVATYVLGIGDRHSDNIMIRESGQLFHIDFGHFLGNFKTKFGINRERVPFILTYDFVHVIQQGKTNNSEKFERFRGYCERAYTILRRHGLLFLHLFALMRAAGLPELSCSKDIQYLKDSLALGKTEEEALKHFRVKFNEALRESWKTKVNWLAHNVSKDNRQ
# [6] = target: T3, Ephrin type-B receptor 3 (Homo sapiens) (UniProt P54753); experiment: Selectivity interaction (KinomeScan (DiscoverX)) EUB0001619a EPHB3; conditions: at 1 µM
# T3 sequence (whole entry): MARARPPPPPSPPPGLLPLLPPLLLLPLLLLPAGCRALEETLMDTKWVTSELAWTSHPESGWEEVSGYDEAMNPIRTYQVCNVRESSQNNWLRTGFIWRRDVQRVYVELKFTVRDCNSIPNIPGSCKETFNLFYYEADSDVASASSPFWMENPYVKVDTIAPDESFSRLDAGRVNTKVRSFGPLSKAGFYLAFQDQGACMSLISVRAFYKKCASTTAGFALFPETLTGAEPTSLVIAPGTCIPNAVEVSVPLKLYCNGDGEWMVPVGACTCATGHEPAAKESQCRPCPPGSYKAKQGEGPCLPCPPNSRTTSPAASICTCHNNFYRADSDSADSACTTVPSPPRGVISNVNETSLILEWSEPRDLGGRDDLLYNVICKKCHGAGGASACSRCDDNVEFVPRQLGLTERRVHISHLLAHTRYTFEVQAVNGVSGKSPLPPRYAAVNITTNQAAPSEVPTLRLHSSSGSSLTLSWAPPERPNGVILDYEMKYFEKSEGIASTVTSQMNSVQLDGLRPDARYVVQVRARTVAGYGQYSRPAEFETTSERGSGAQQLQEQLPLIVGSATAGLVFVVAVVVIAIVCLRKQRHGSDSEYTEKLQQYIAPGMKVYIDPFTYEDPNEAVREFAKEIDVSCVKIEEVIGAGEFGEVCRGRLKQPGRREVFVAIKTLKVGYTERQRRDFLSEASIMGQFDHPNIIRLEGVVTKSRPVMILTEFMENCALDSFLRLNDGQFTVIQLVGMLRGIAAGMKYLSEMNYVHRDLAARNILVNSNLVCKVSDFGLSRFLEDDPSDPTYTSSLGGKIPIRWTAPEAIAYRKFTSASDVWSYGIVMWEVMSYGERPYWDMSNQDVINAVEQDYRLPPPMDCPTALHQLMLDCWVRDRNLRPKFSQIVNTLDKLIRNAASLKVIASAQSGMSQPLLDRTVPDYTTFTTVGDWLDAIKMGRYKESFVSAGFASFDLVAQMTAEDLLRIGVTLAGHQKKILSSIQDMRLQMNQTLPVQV
# Calcium/calmodulin-dependent protein kinase type 1G (Homo sapiens), sequence (Q96NX5 whole entry): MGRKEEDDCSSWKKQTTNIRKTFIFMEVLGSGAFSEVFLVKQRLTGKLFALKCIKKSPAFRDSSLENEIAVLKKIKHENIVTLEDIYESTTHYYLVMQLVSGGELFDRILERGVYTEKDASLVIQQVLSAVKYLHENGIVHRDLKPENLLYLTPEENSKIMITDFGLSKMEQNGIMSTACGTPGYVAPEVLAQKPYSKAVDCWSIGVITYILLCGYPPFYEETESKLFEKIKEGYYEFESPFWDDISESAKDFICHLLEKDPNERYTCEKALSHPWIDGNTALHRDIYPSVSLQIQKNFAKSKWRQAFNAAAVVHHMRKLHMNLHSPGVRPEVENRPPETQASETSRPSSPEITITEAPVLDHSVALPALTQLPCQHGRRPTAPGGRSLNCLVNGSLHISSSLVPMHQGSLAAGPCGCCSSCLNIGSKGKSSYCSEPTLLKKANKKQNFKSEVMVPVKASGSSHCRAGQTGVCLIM
# Serine/threonine-protein kinase 24 (Homo sapiens), sequence (Q9Y6E0 whole entry, looked up, canonical isoform): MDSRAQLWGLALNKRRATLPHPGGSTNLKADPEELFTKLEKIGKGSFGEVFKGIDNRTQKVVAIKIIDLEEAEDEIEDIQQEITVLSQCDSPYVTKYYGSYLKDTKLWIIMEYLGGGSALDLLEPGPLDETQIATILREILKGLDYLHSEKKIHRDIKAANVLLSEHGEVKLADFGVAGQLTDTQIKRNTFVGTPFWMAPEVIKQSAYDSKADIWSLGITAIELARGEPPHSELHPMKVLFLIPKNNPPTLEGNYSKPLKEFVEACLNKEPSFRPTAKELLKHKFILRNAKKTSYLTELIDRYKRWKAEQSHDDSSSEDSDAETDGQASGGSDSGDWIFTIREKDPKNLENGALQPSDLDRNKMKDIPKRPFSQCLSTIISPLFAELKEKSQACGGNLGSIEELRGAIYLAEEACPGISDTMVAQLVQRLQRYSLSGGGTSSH
smiles,measurement,setting,value
O=C(NOC[C@H](O)CO)c1ccc(F)c(F)c1Nc1ccc(I)cc1F,% of control,[1],100%
CNCCN1CCC(c2cc(CN(C)C(=O)c3cccc(Oc4ccccc4)c3)ccn2)CC1,% of growth rate,[2],-22.5%
Nc1cnc(N2CCc3cc(S(=O)(=O)Nc4c(F)cc(Cl)cc4F)cc(N4CCCC4=O)c32)nc1 [TP-020n],% of control,[3],80%
CC(C)(O)[C@H](F)CN1Cc2cc(NC(=O)c3cnn4cccnc34)c(N3CCOCC3)cc2C1=O,dTM,[4],0.1 K
CCC(=O)N1CC[C@H](Nc2ncnc3c2CN(c2cnc(OC)c(C(F)(F)F)c2)CC3)C1 [LENIOLISIB],% of inhibition,[5],100%
N#Cc1cccc(-c2c[nH]c3ncnc(N4CCOCC4)c23)c1,% of control,[6],100%
